Assay results from patent US20220056019A1, “FARNESOID X RECEPTOR AGONISTS AND USES THEREOF” (Metacrine, Inc., priority 2018, published 2022).

Molecular target: T1, hFXR (Homo sapiens, UniProt Q96RI1)
T1 construct: expressed in transfected cells; host or cells: CV-1 cells
T1 sequence (Q96RI1 1-486): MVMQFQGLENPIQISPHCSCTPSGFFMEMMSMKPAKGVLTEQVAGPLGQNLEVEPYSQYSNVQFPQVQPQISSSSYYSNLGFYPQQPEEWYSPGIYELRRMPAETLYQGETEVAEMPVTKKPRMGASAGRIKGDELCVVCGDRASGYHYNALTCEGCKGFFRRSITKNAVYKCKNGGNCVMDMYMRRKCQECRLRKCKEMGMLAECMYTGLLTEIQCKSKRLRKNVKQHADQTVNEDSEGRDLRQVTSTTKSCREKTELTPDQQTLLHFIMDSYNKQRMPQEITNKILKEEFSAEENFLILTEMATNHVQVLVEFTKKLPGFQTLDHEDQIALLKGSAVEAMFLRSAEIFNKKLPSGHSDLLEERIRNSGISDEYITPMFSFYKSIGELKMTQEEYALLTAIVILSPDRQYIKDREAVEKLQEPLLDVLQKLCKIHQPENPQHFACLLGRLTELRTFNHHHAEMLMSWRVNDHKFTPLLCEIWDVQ
T1 sequence (P19793 1-462 partner): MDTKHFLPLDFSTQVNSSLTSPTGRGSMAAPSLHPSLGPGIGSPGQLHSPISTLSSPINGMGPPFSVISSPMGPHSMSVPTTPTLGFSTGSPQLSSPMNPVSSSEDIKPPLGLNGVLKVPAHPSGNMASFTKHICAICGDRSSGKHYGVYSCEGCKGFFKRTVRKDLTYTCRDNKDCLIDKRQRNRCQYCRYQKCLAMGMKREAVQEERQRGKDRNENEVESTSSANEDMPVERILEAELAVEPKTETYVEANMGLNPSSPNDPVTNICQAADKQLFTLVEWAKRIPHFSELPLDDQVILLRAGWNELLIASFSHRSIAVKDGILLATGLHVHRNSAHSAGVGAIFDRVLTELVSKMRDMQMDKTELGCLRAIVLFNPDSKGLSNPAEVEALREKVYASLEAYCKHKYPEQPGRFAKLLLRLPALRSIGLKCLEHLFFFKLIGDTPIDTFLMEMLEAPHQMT
Assay: In Vitro FXR Assay (TK): TK-ECRE-luc reporter in transfected CV-1 cells
Type: cell-based
Conditions: 18 hrs incubation, luminescence
Summary of the method: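 Luminescence from a TK-ECRE-luc reporter was read after 18 h of compound exposure in CV-1 cells. These cells were grown in charcoal-stripped FBS medium and transiently transfected with hFXR, hRXR and YFP expression plasmids.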

Compound: Cn1ccc2nc([C@H]3CC[C@H](CN(c4cccc(-c5cnc(C6CC6)s5)c4)C(=O)[C@H]4CC[C@H](OC(=O)N5CC(O)C5)CC4)CC3)ccc21 [Compound 5.13, trans-4-((3-(2-Cyclopropylthiazol-5-yl)phenyl)(((trans)-4-(1-methyl-1H-pyrrolo[3,2-b]pyridin-5-yl)cyclohexyl)methyl)carbamoyl) cyclohexyl 3-hydroxyazetidine-1-carboxylate]
- EC50: ≤ 50 nM

Compound: COc1ccc([C@H]2CC[C@H](CN(c3cc(-c4cnn(C(C)C)c4)ccn3)C(=O)[C@H]3CC[C@H](OC(=O)NC[C@H](F)CF)CC3)CC2)cc1C [Compound 2.33, trans-4-((4-(1-Isopropyl-1H-pyrazol-4-yl)pyridin-2-yl)(((trans)-4-(4-methoxy-3-methylphenyl)cyclohexyl)methyl)carbamoyl) cyclohexyl((S)-2,3-difluoropropyl) carbamate]
- EC50: ≤ 50 nM

Compound: CC(C)n1cc(-c2ccnc(N(CC34CCC(c5ccc(N(C)C)nc5)(CC3)CC4)C(=O)[C@H]3CC[C@H](OC(=O)N4CC(O)C4)CC3)c2)cn1 [Compound 4.57, 4-(((4-(6-(Dimethylamino)pyridin-3-yl)bicyclo[2.2.2]octan-1-yl)methyl)(4-(1-isopropyl-1H-pyrazol-4-yl)pyridin-2-yl)carbamoyl) (trans-cyclohexyl) 3-hydroxyazetidine-1-carboxylate]
- EC50: ≤ 50 nM

Compound: COc1ccc([C@H]2CC[C@H](CN(c3cc(-c4cc(C(C)C)on4)ccn3)C(=O)[C@H]3CC[C@H](OC(=O)N4CC(O)C4)CC3)CC2)cc1C [Compound 2.56, trans-4-((4-(5-Isopropylisoxazol-3-yl)pyridin-2-yl)(((trans)-4-(4-methoxy-3-methylphenyl)cyclohexyl)methyl)carbamoyl)cyclohexyl 3-hydroxyazetidine-1-carboxylate]
- EC50: ≤ 50 nM

Compound: COc1ccc(C23CCC(CN(c4cc(-c5cnn(C(C)C)c5)ccn4)C(=O)[C@H]4CC[C@H](NC(=O)COCCCO)CC4)(CC2)CC3)cc1C [Compound 13.02, trans-4-(2-(3 Hydroxypropoxy)acetamido)-N-(4-(1-isopropyl-1H-pyrazol-4-yl)pyridin-2-yl)-N-((4-(4-methoxy-3-methylphenyl)bicyclo[2.2.2]octan-1-yl)methyl)cyclohexanecarboxamide]
- EC50: ≤ 50 nM

Compound: CCc1ncc(-c2ccnc(N(CC34CCC(c5ccc(OC)c(C)c5)(CC3)CC4)C(=O)[C@H]3CC[C@H](OC(=O)N4CC(O)C4)CC3)c2)s1 [Compound 4.20, 4-((4-(2-Ethylthiazol-5-yl)pyridin-2-yl)((4-(4-methoxy-3-methylphenyl)bicyclo[2.2.2]octan-1-yl)methyl)carbamoyl) cyclohexyl 3-hydroxyazetidine-trans-1-carboxylate]
- EC50: ≤ 50 nM

Compound: COc1ccc(C23CCC(CN(c4cc(-n5cc(C(C)C)cn5)ccn4)C(=O)[C@H]4CC[C@H](OC(=O)N5CC(O)C5)CC4)(CC2)CC3)cc1C [Compound 23.14, 4-((4-(4-Isopropyl-1H-pyrazol-1-yl)pyridin-2-yl)((4-(4-meth-oxy-3-methylphenyl)bi-cyclo[2.2.2]octan-1-yl)meth-yl)carbamoyl)cyclohexyl trans-3-hydroxyazetidine-1-carboxylate]
- EC50: ≤ 50 nM

Compound: COc1ccc([C@H]2CC[C@H](CN(c3cccc(-c4cnn(C(C)C)c4)c3)C(=O)[C@H]3CC[C@H](OC(=O)NC[C@H](F)CO)CC3)CC2)cc1C [Compound 5.07, trans-4-((3-(1-Isopropyl-1H-pyrazol-4-yl)phenyl)(((trans)-4-(4-methoxy-3-methylphenyl)cyclohexyl)methyl)carbamoyl)cyclohexyl ((S)-2-fluoro-3-hydroxypropyl) carbamate]
- EC50: ≤ 50 nM

Compound: COc1ccc(C23CCC(CN(c4ccc(F)c(-c5cnn(C(C)C)c5)c4)C(=O)[C@H]4CC[C@H](OC(=O)NCCCO)CC4)(CC2)CC3)cc1C [Compound 25.08, 4-((4-Fluoro-3-(1-isopropyl-1H-pyrazol-4-yl)phenyl)((4-(4-methoxy-3-methylphenyl)bicyclo[2.2.2]octan-1-yl)methyl)carbamoyl)cyclohexyl trans-(3-hydroxypropyl)carbamate]
- EC50: ≤ 50 nM

Compound: COc1ccc(C23CCC(CN(c4cc(-c5cnc(C6CC6)s5)ccn4)C(=O)[C@H]4CC[C@H](OC(=O)N5CC(O)C5)CC4)(CC2)CC3)cc1C [Compound 4.01, 4-((4-(2-Cyclopropylthiazol-5-yl)pyridin-2-yl)((4-(4-methoxy-3-methylphenyl)bicyclo[2.2.2]octan-1-yl)methyl)carbamoyl) cyclohexyl 3-hydroxyazetidine-trans-1-carboxylate]
- EC50: ≤ 50 nM

Compound: COc1ccc(C23CCC(CN(c4cc(-c5noc(C(C)C)n5)ccn4)C(=O)[C@H]4CC[C@H](OC(=O)N5CC(O)C5)CC4)(CC2)CC3)cc1C [Compound 26.14, 4-((4-(5-Isopropyl-1,2,4-oxadiazol-3-yl)pyridin-2-yl)((4-(4-methoxy-3-methylphenyl)bicyclo[2.2.2]octan-1-yl)methyl)carbamoyl)cyclohexyl trans-3-hydroxyazetidine-1-carboxylate]
- EC50: ≤ 50 nM

Compound: CCOC(=O)N[C@H]1CC[C@H](C(=O)N(CC23CCC(c4ccc(OC)c(C)c4)(CC2)CC3)c2cc(-c3cnn(C(C)C)c3)ccn2)CC1 [Compound 8.01, (trans)-Ethyl (4-((4-(1-isopropyl-1H-pyrazol-4-yl)pyridin-2-yl)((4-(4-methoxy-3-methylphenyl)bicyclo[2.2.2]octan-1-yl)methyl)carbamoyl)cyclohexyl)car-bamate]
- EC50: ≤ 50 nM

Compound: COc1ccc(C23CCC(CN(c4ccc(F)c(-c5cnn(C(C)C)c5)c4F)C(=O)[C@H]4CC[C@H](OC(=O)N5CC(O)C5)CC4)(CC2)CC3)cc1C [Compound 25.15, 4-((2,4-Difluoro-3-(1-isopropyl-1H-pyrazol-4-yl)phenyl)((4-(4-methoxy-3-methylphenyl)bicyclo[2.2.2]octan-1-yl)methyl)carbamoyl)cyclohexyl trans-3-hydroxyazetidine-1-carboxylate]
- EC50: ≤ 50 nM

Compound: CCS(=O)(=O)NC[C@H]1CC[C@H](C(=O)N(C[C@H]2CC[C@H](c3ccc(OC)c(C)c3)CC2)c2cccc(-c3cnn(C(C)C)c3)c2)CC1 [Compound 12, (trans)-4-(Ethylsulfonamidomethyl)-N-(3-(1-isopropyl-1H-pyrazol-4-yl)phenyl)-N-(((trans)-4-(4-methoxy-3-methylphenyl)cyclohexyl)methyl)cyclohexanecarboxamide]
- EC50: ≤ 50 nM

Compound: COc1ccc(C23CCC(CN(c4cc(-c5cnn(C(C)C)c5)ccn4)C(=O)[C@H]4CC[C@H](OC(=O)N5CC(CS(C)(=O)=O)C5)CC4)(CC2)CC3)cc1C [Compound 4.44, 4-((4-(1-Isopropyl-1H-pyrazol-4-yl)pyridin-2-yl) ((4-(4-methoxy-3-methylphenyl)bicyclo [2.2.2]octan-1-yl)methyl)carbamoyl)cyclohexyl trans-3-((methylsulfonyl)methyl)azetidine-1-carboxylate]
- EC50: ≤ 50 nM

Compound: COc1ccc(C23CCC(CN(c4cnnc(-c5cnn(C(C)C)c5)c4)C(=O)[C@H]4CC[C@H](OC(=O)N5CC(O)C5)CC4)(CC2)CC3)cc1C [Compound 4.61, 4-((6-(1-Isopropyl-1H-pyrazol-4-yl)pyridazin-4-yl)((4-(4-methoxy-3-methylphenyl)bicyclo [2.2.2]octan-1-yl)methyl)carbamoyl)(trans-cyclohexyl) 3-hydroxyazetidine-1-carboxylate]
- EC50: 50 to 1000 nM

Compound: COc1ccc(C23CCC(CN(c4cccc(-c5cnn(C(C)C)c5)n4)C(=O)[C@H]4CC[C@H](OC(=O)N5CC(O)C5)CC4)(CC2)CC3)cc1C [Compound 23.25, 4-((6-(1-Isopropyl-1H-pyrazol-4-yl)pyridin-2-yl)((4-(4-methoxy-3-methylphenyl)bicyclo[2.2.2]octan-1-yl)methyl)carba-moyl)cyclohexyl trans-3-hydroxy-azetidine-1-carboxylate]
- EC50: ≤ 50 nM

Compound: COc1ccc(C23CCC(CN(c4cc(-c5cnn(C(C)C)c5)ccc4F)C(=O)[C@H]4CC[C@H](OC(=O)N5CC(O)C5)CC4)(CC2)CC3)cc1C [Compound 25.03, 4-((2-Fluoro-5-(1-isopropyl-1H-pyrazol-4-yl)phenyl)((4-(4-methoxy-3-methylphenyl)bicyclo[2.2.2]octan-1-yl)methyl)carbamoyl)cyclohexyl trans-3-hydroxyazetidine-1-carboxylate]
- EC50: ≤ 50 nM

Compound: COc1ccc([C@H]2CC[C@H](CN(c3cc(-c4cnn(C(C)C)c4)ccn3)C(=O)[C@H]3CC[C@H](OC(=O)NCC(C)(C)CO)CC3)CC2)nc1C [Compound 1.02, trans-4-((4-(1-Isopropyl-1H-pyrazol-4-yl)pyridin-2-yl) ((trans-4-(5-methoxy-6-methylpyridin-2-yl)cyclohexyl)methyl)carbamoyl) cyclohexyl (3-hydroxy-2,2-dimethylpropyl)carbamate]
- EC50: ≤ 50 nM
